Experimental data reported in patent US20170035828A1, “COMPOSITION CONTAINING SCUTELLARIA ALPINA EXTRACT” (AMOREPACIFIC CORPORATION, priority 2014, published 2017).

Key:
Type in all cases: cell-based, human
[1] = test system: NK1R (neurokinin 1 receptor) gene; test: Gene expression assay by real-time PCR (NK1R) in melanocytes; settings: melanocytes (KaMC), 2 nM substance P, 5 days
Method: (§1) Melanocytes (KaMC; KCTC 12015BP) deposited in the Korean Collection for Type Culture (KCTC) were cultured in M-254 medium (Gibco BRL, NY, USA) supplemented with Human Melanocyte Growth Supplement (HMGS; Gibco BRL, NY, USA) on a 6-well plate, while changing the medium every other day, in a 5% CO2 incubator at 37° C. until the cells occupied 95% of the plate area (95% confluence). […] The cells not treated with substance P or the alpine skullcap (Scutellaria alpina) extract of Example 1 were used as a control group. After removing the medium form the melanocytes cultured on the 6-well plate, the cells were washed 2 times with cold phosphate-buffered saline (PBS) and the remaining water was completely removed. […] 1 μL of the RNA was quantified using Synergy II (Biotek, USA). […] After adding 10 μL of Taqman Gene Expression Master Mix (Life Technologies, USA) and 1 μL of Assays-on-DemandTM (Life Technologies, USA) of NK1R (ACCESSION: NM_001058) and EDN1 (ACCESSION: NM_001168319) genes to 9 μL of the diluted cDNA, the expression of the genes was analyzed by relative quantification using 7500 Fast Real-Time PCR (Life Technologies, USA) with glyceraldehyde 3-phosphate dehydrogenase (GAPDH, ACCESSION: NM001256799) as a control gene. […]

EDN1 (endothelin 1) gene = test: Gene expression assay by real-time PCR (EDN1) in melanocytes; settings: melanocytes (KaMC), 2 nM substance P, 5 days
Method: as §1

endothelin 1 (EDN1) = test: Endothelin 1 ELISA assay of culture medium of treated melanocytes; settings: melanocytes (KaMC), 2 nM substance P
Method: When the density of the melanocytes on the 6-well plate reached about 80% (˜80% confluence), they were incubated for a total of 5 days with 2 nM of stress-inducing substance P (Bachem Fechemikalien, Bubendorf, Switzerland) or the alpine skullcap (Scutellaria alpina) extract of Example 1 of different concentrations (0, 0.1, 1, 2 and 5 ppm). The cells not treated with substance P or the alpine skullcap (Scutellaria alpina) extract of Example 1 were used as a control group.
The culture medium of the cells treated with the extract in (2) of Test Example 1 were recovered and the amount of endothelin 1 (EDN1) comprised in the medium was measured at 450 nm using the human total endothelin ELISA kit (MyBioSource, USA).
Endothelin content (%)=(Absorbance/Total protein)×100 [Equation 1]

expression of the NK1R gene (relative quantification vs GAPDH, control group = 1) [1]: 3.8
SMILES: CSCC[C@H](NC(=O)[C@H](CC(C)C)NC(=O)CNC(=O)[C@H](Cc1ccccc1)NC(=O)[C@H](Cc1ccccc1)NC(=O)[C@H](CCC(N)=O)NC(=O)[C@H](CCC(N)=O)NC(=O)[C@@H]1CCCN1C(=O)[C@H](CCCCN)NC(=O)[C@@H]1CCCN1C(=O)[C@@H](N)CCCN=C(N)N)C(N)=O [substance P]
expression of the EDN1 gene (relative quantification vs GAPDH, control group = 1) (EDN1 (endothelin 1) gene): 3.3
content of endothelin 1 (Absorbance/Total protein x 100, control group = 100%) (endothelin 1 (EDN1)): 124%
